Laboratory results published in US11911394B2, “Compound and method for the prevention of transmission of influenza virus” (Hoffmann-La Roche Inc., priority 2019, dated 2024).

Experiments:
Type in all cases: in vivo
[1] = test system: Influenza A/Perth/265/2009 H1N1pdm09 virus; assay: Example 2 ferret contact transmission study, TCID50 assay of nasal wash; conditions: for treated donors TCID50-positive (shedding detectable infectious virus) at donor endpoint: Example 2, all experiment schedules (Experiments 1-3); for recipient ferrets shedding detectable infectious virus (TCID50) following contact exposure to donor: donor treated 1 DPI; for recipient ferrets shedding detectable infectious virus (TCID50) following contact exposure to donor / donors shedding detectable infectious virus (TCID50) at 3 DPI endpoint / donors shedding detectable infectious virus (TCID50) at 4 DPI endpoint / ferrets shedding infectious virus (TCID50), FIG. 13A recipient results / donors shedding infectious virus (TCID50) at 4 DPI endpoint: positive/total; for donors shedding detectable infectious virus (TCID50) at 3 DPI endpoint / donors shedding detectable infectious virus (TCID50) at 4 DPI endpoint: treatment 1 DPI; for donor group titer (TCID50) compared to placebo group: baloxavir at 2 DPI (p≤0.05), 3 DPI and 4 DPI (p≤0.001), oseltamivir on 2-4 DPI; for ferrets shedding infectious virus (TCID50), FIG. 13A recipient results: donor treated 2 DPI, printed as donors at 4 DPI endpoint; for donors shedding infectious virus (TCID50) at 4 DPI endpoint: treatment 2 DPI; for effect of donor treatment on contact transmission to naïve ferrets: Example 2 Experiments 1-3
[2] = test system: influenza A virus A/England/195/2009; assay: Example 1 ferret transmission study (direct contact and respiratory droplet), plaque assay of nasal wash; conditions: for Donor ferrets positive for influenza as detected by the plaque assay: donor ferrets treated 24 h post infection; for Donor ferrets positive for influenza as detected by the plaque assay / Sentinel DC ferrets positive for influenza as detected by the plaque assay / Sentinel RD ferrets positive for influenza as detected by the plaque assay: positive/total; for respiratory droplet transmission: from treated donor ferrets to sentinels; for mean time to virus shedding, direct contact sentinels: sentinels exposed to treated donors, control 4.25 days; for Sentinel DC ferrets positive for influenza as detected by the plaque assay: untreated direct contact sentinels of treated donors; for mean time to virus shedding, respiratory droplet exposed sentinels: untreated donors 4.5 days, baloxavir value from the one infected sentinel; for Sentinel RD ferrets positive for influenza as detected by the plaque assay: untreated respiratory droplet sentinels of treated donors
A/Perth/265/2009 virus = assay: Example 2 ferret contact transmission study, serology (HI assay) of recipient sera; conditions: for recipients demonstrating antibody responses to donor virus (serology): positive/total
From the text: Sera were collected from endpoint recipient blood samples by centrifugation, and non-specific inhibitors of agglutination were removed by treatment with receptor-destroying enzyme (RDE) (Denka Seiken) according to manufacturer's instructions. Treated sera were adsorbed with turkey RBCs prior to HI assay to remove non-specific agglutination factors. Briefly, sera (initially 1:20 dilution) were serially diluted twofold in PBS in V-bottom 96-well plates (final row left as PBS negative control). A/Perth/265/2009 virus adjusted to 4 haemagglutination units in 25 μL was mixed to all sample wells for 1 hr incubation at room temperature, followed by 45 min incubation of 1% turkey RBC. […] HI titre was calculated as the reciprocal of the highest serum dilution at which agglutination was inhibited.
(§1) This study consisted of three separate Experiments using different schedules of antiviral treatment and timing of naïve animal co-housing. In each experiment, twenty-four ferrets were randomly assigned to three groups (n=8): BXA, OST and placebo. Within each group, n=4 ferrets were designated as treated donor ferrets, and n=4 as naïve recipients. On 0 DPI (days post inoculation) for each experiment, all donor ferrets (each individually housed) were intranasally inoculated with influenza A/Perth/265/2009 at […] tissue culture infective doses (TCID50) in 40 μL of phosphate-buffered saline (PBS). As described above, donors in the BXA and placebo groups received a single antiviral treatment, whereas OST-group donors were treated daily until endpoint (excluding cull day). At the designated time point, naïve recipient ferrets were co-housed with treated donor ferrets (1:1 per cage) for a contact exposure period of 48 hr.
(§2) Experiment 2: Antiviral treatment commenced at 1 DPI, and recipient co-housing was delayed until 24 hr following treatment (2 DPI). Body weight and temperature were monitored daily from all animals. Daily nasal wash samples were collected using 1 mL of PBS from 1 DPI to 4 DPI for donor animals, and 1 DPE to 10 DPE for recipient animals. Donors were sacrificed at 4 DPI (2 DPE), and blood was collected from BXA- and placebo-treated ferrets by cardiac puncture. Recipients were maintained until 16 DPE, at which time blood was collected by cardiac puncture.
as §2, with “Experiment 3:” for “Experiment 2:”, “at 2” for “at 1”, “and recipients were co-housed immediately afterwards.” for “and recipient co-housing was delayed until 24 hr following treatment (2 DPI).”

[3] = test system: Influenza A/Perth/265/2009 H1N1pdm09 virus; assay: Example 2 ferret contact transmission study, quantitative real-time RT-PCR of nasal wash; conditions: for donor viral copy numbers (qRT-PCR) compared to placebo: 3 DPI (p≤0.05), nasal wash; for recipients with influenza virus RNA detected (qRT-PCR) / ferrets with viral RNA detected (qRT-PCR), FIG. 13B recipient results: positive/total; for ferrets with viral RNA detected (qRT-PCR), FIG. 13B recipient results: Example 2 Experiment 3, printed as donors
Experimental: The active form baloxavir acid (S-033447, hereafter BXA) and pro-drug oseltamivir phosphate (hereafter OST) was kindly provided by Shionogi & Co., Ltd., Japan. The vehicle for BXA delivery was methyl cellulose (Sigma-Aldrich, Australia) in 0.5 w/v % aqueous solution prepared with sterile water (hereafter MC solution). BXA in suspension with MC solution (1 mg/mL) was prepared using an agate mortar and pestle, and was delivered to reversibly anaesthetised animals in a single treatment consisting of 4 subcutaneous injections at 4 locations on the dorsal region (total dose 4 mg/kg per animal). Animals in the placebo group were dosed identically using MC solution (1 mL/kg) alone. OST doses (10 mg/mL) were prepared in sugar solution (1 g/mL) and delivered bis in die (8 hr interval) to non-sedated ferrets by the oral route (total dose 10 mg/kg/day).
Viral RNA was extracted from 200 μL nasal wash samples using the NucleoMag VET isolation kit (Macherey Nagel) on the KingFisher Flex (ThermoFisher Scientific) platform according to manufacturer's instructions. Influenza virus M gene copy number in 4 μL RNA was determined by quantitative real-time RT-PCR performed using the SensiFAST Probe Lo-ROX One-Step qRT-PCR System Kit (Bioline) on the ABI 7500 Real Time PCR System (Applied Biosystems) under the following cycling conditions: 45° C. for 10 min, 1 cycle; 95° C. for 2 min, 1 cycle; 95° C. for 5 sec then 60° C. for 30 sec, 40 cycles. Sample RNA was quantitated using influenza A RNA standards of known copy number, kindly provided by Seqirus, Australia. Universal influenza A real-time primer/probe sets were kindly provided by CDC Influenza Branch (Atlanta, USA) (sequences available upon request). Results were analysed by 7500 Fast System SDS software v1.5.1.
Data analysis was performed using Graphpad Prism (GraphPad Software, v5.01). Nasal wash viral titres of all ferrets on each day post inoculation/exposure were compared by a matched two-way analysis of variance (ANOVA) followed by Tukey's multiple comparisons test. Quantitative real time RT-PCR was performed on influenza control RNA of known copy number to generate a standard curve (linear regression of influenza cycle threshold (Ct) values vs. copy number). Viral copy numbers present in nasal wash RNA samples on the same assay were calculated using the formula of the standard curve. Influenza A copy numbers for each group of ferrets were compared by a matched two-way ANOVA followed by Tukey's multiple comparisons test. p<0.05 was considered statistically significant.
as §1
Experiment 1: Antiviral treatment for all donors commenced at 1 DPI, and naïve recipient ferrets were co-housed immediately following treatment. Body weight and temperature were monitored daily from all animals. Daily nasal wash samples were collected 1 mL of PBS from 1 DPI to 3 DPI for donor animals, and 1 day post exposure (DPE) to 10 DPE for recipient animals. Donors were sacrificed at 3 DPI (2 DPE), and blood was collected from BXA- and placebo-treated ferrets by cardiac puncture. […]

[4] = Example 2 Experiment 1, baloxavir at 2 DPI (p≤0.05) and 3 DPI (p≤0.001)
[5] = Example 2 Experiment 1, co-housing 1 DPI
[6] = Example 2 Experiment 2, co-housing 2 DPI
[7] = Example 2 Experiment 3, baloxavir at 3 and 4 DPI (p≤0.001), oseltamivir on 3 DPI (p≤0.05)
[8] = Example 2 Experiment 3, co-housing 2 DPI

Compound: O=C1c2c(O)c(=O)ccn2N([C@@H]2c3ccccc3SCc3c2ccc(F)c3F)[C@@H]2COCCN12 [baloxavir, baloxavir acid]
- treated donors TCID50-positive (shedding detectable infectious virus) at donor endpoint [1]: 0/4 and No
- mean viral titres compared to the placebo-group ([1]; Example 2, 24 hours following treatment, all experiment conditions (p≤0.05)): significantly reduced
- frequency of infectious viral shedding in recipients ([1]; Example 2, donor treatment at 1 DPI): 25%
- frequency of infectious viral shedding in recipients ([1]; Example 2, donor treatment at 2 DPI): 50%
- infectious virus titers in the URT compared to both placebo and oseltamivir ([1]; Example 2, three independent experiments, single treatment of infected ferrets): significantly reduced
- reduction in transmission ([1]; Example 2, treatment 48 hr post infection): 50%
- reduction of transmission ([1]; Example 2, treatment within 24 hr of infection): 75%
- donor group titer (TCID50) compared to placebo-group [1, 4]: significantly lower
- recipient ferrets shedding detectable infectious virus (TCID50) following contact exposure to donor [1, 5]: 1/4
- donors shedding detectable infectious virus (TCID50) at 3 DPI endpoint ([1]; Example 2 Experiment 1): 0/4
- donor group titer (TCID50) compared to oseltamivir group ([1]; Example 2 Experiment 2, 3-4 DPI (p≤0.01)): significantly lower
- donor group titer (TCID50) compared to placebo group ([1]; Example 2 Experiment 2): significantly lower
- recipient ferrets shedding detectable infectious virus (TCID50) following contact exposure to donor [1, 6]: 1/4
- donors shedding detectable infectious virus (TCID50) at 4 DPI endpoint ([1]; Example 2 Experiment 2): 0/4
- donor group titer (TCID50) compared to oseltamivir-group ([1]; Example 2 Experiment 3, 4 DPI (p≤0.001)): lower
- donor group titer (TCID50) compared to placebo-group [1, 7]: significantly lower
- ferrets shedding infectious virus (TCID50), FIG. 13A recipient results [1, 8]: 2/4
- donors shedding infectious virus (TCID50) at 4 DPI endpoint ([1]; Example 2 Experiment 3): 0/4
- effect of donor treatment on contact transmission to naïve ferrets [1]: reduces
- Donor ferrets positive for influenza as detected by the plaque assay [2]: 3/4
- respiratory droplet transmission [2]: 25%
- mean time to virus shedding, direct contact sentinels [2]: 5.5 days
- Sentinel DC ferrets positive for influenza as detected by the plaque assay [2]: 4/4
- mean time to virus shedding, respiratory droplet exposed sentinels [2]: 8 days
- Sentinel RD ferrets positive for influenza as detected by the plaque assay [2]: 1/4
- reduction of antibody responses in TCID50-negative recipients compared to titres in placebo-group recipients (A/Perth/265/2009 virus; Example 2 Exp. 2 and 3): 16-32 fold
- reduction of antibody response in TCID50-negative ferret compared to TCID50-positive ferrets (A/Perth/265/2009 virus; Example 2 Experiment 2, baloxavir-group recipient): > 32 fold change
- recipients demonstrating antibody responses to donor virus (serology) (A/Perth/265/2009 virus; Example 2 Experiment 2): 2/4
- reduction of antibody titres in TCID50-negative recipients compared to TCID50-positive ferrets (A/Perth/265/2009 virus; Example 2 Experiment 3, TCID50-negative baloxavir-group recipients (2/4)): > 16 fold change
- donor viral copy numbers (qRT-PCR) compared to placebo ([3]; Example 2 Experiment 1): significantly reduced
- recipients with influenza virus RNA detected (qRT-PCR) ([3]; Example 2 Experiment 1): 2/4
- donor mean viral copy number (qRT-PCR) ([3]; Example 2 Experiment 2, 3 DPI, no differences at any other days): reduced
- recipients with influenza virus RNA detected (qRT-PCR) ([3]; Example 2 Experiment 2): 1/4
- ferrets with viral RNA detected (qRT-PCR), FIG. 13B recipient results [3]: 3/4

Compound: CCOC(=O)C1=C[C@@H](OC(CC)CC)[C@H](NC(C)=O)[C@@H](N)C1 [oseltamivir, oseltamivir phosphate, reference compound]
- treated donors TCID50-positive (shedding detectable infectious virus) at donor endpoint [1]: 4/4
- recipients demonstrating evidence of infection by TCID50, qRT-PCR and serology ([1]; Example 2, all experimental conditions): 100%
- donor group titer (TCID50) compared to placebo-group [1, 4]: no significant difference
- recipient ferrets shedding detectable infectious virus (TCID50) following contact exposure to donor [1, 5]: 4/4
- donors shedding detectable infectious virus (TCID50) at 3 DPI endpoint ([1]; Example 2 Experiment 1): 4/4
- donor group titer (TCID50) compared to placebo group ([1]; Example 2 Experiment 2): no difference
- recipient ferrets shedding detectable infectious virus (TCID50) following contact exposure to donor [1, 6]: 4/4
- donors shedding detectable infectious virus (TCID50) at 4 DPI endpoint ([1]; Example 2 Experiment 2): 4/4
- donor group titer (TCID50) compared to placebo-group [1, 7]: significantly lower
- ferrets shedding infectious virus (TCID50), FIG. 13A recipient results [1, 8]: 4/4
- donors shedding infectious virus (TCID50) at 4 DPI endpoint ([1]; Example 2 Experiment 3): 4/4
- effect of donor treatment on contact transmission to naïve ferrets [1]: does not reduce
- Donor ferrets positive for influenza as detected by the plaque assay [2]: 4/4
- respiratory droplet transmission [2]: 100%
- mean time to virus shedding, direct contact sentinels [2]: 5.5 days
- Sentinel DC ferrets positive for influenza as detected by the plaque assay [2]: 4/4
- mean time to virus shedding, respiratory droplet exposed sentinels [2]: 9.3 days
- Sentinel RD ferrets positive for influenza as detected by the plaque assay [2]: 3/4
- recipients demonstrating antibody responses to donor virus (serology) (A/Perth/265/2009 virus; Example 2 Experiment 2): 4/4
- donor viral copy numbers (qRT-PCR) compared to placebo ([3]; Example 2 Experiment 1): significantly reduced
- recipients with influenza virus RNA detected (qRT-PCR) ([3]; Example 2 Experiment 1): 4/4
- recipients with influenza virus RNA detected (qRT-PCR) ([3]; Example 2 Experiment 2): 4/4
- ferrets with viral RNA detected (qRT-PCR), FIG. 13B recipient results [3]: 4/4
